Data published in patent US11427548B2 (Arvinas Operations, Inc., priority 2015, dated 2022).
Read-outs that look alike come from different tables or passages of the source. Each block holds one compound with its values, some of them ahead of it.

Target: T1, Androgen Receptor (Homo sapiens, UniProt P10275)
T1 construct: endogenous in cells; host or cells: VCaP cells
T1 sequence (P10275 1-920): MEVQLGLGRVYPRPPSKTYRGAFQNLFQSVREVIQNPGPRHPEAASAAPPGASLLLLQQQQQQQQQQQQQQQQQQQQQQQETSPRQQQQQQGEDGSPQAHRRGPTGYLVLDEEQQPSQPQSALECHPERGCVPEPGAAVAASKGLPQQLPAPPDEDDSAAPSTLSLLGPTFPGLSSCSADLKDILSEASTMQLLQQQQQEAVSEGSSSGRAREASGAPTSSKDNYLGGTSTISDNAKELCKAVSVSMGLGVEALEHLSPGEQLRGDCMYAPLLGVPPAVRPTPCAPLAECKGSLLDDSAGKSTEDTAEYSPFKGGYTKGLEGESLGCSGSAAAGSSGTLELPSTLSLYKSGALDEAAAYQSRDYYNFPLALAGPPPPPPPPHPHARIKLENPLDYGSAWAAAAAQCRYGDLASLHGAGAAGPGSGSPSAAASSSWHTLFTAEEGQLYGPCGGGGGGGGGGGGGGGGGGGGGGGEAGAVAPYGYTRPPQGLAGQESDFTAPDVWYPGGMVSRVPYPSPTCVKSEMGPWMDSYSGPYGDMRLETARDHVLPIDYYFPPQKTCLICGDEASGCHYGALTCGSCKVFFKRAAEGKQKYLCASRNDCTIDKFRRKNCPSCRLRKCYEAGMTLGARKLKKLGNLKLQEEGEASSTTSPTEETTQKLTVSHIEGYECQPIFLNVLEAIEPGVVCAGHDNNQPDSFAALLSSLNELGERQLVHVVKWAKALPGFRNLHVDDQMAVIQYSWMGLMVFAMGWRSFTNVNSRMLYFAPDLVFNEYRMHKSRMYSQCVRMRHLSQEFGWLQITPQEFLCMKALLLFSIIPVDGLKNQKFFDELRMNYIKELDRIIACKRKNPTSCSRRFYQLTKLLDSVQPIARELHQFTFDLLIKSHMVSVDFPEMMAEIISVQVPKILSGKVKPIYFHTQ
Assay: Androgen Receptor ELISA assay (PathScan AR ELISA) in VCaP cells: AR degradation, Dmax and DC50
Format: cell-based
Procedure, shortened: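 After 24 h exposure of VCaP cells (charcoal-stripped serum, 0.1 nM R1881 agonist, 0.1% DMSO) to seven half-log compound concentrations, residual AR in lysates was measured by PathScan ELISA (TMB absorbance, 450 nm). Cells were plated at 30,000/well and grown at least 3 days beforehand.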

[1] = VCaP cells; Table 36; read-out: VCaP DC50

SMILES: CC(C)(C)[C@H](NC(=O)COCCCCOc1ccc(-c2ccc(N3C(=S)N(c4ccc(C#N)c(F)c4)C(=O)C3(C)C)cc2)cc1)C(=O)N1C[C@H](O)C[C@H]1C(=O)NCc1ccc(-c2cnco2)cc1 [Example 126, (2S,4R)-1-[(2S)-2-{2-[4-(4-{4-[3-(4-cyano-3-fluorophenyl)-5,5-dimethyl-4-oxo-2-sulfanylideneimidazolidin-1-yl]phenyl}phen-oxy)butoxy]acetamido}-3,3-dimethylbutanoyl]-4-hydroxy-N-{[4-(1,3-oxazol-5-yl)phenyl]methyl}pyrrolidine-2-carboxamide]
Dmax (VCaP, highest percentage of Androgen Receptor degradation observed, VCaP cells (Table 32); read-out: VCaP Dmax (%)): 51 to 70%
DC50 (concentration that caused 50% Androgen Receptor degradation, VCaP cells (Table 32); read-out: VCaP DC50): < 50 nM

DC50 [1]: > 501 nM
Dmax (VCaP, VCaP cells; Table 36; read-out: VCaP Dmax (%)): < 25%
SMILES: Cc1ncsc1-c1ccc([C@H](C)NC(=O)[C@@H]2C[C@@H](O)CN2C(=O)[C@@H](NC(=O)COCCCCCNc2ccc(C(=O)N[C@H]3C(C)(C)[C@H](Oc4ccc(C#N)c(Cl)c4)C3(C)C)nc2)C(C)C)cc1 [Example 670, N-((1r,3r)-3-(3-chloro-4-cyanophenoxy)-2,2,4,4-tetramethylcyclobutyl)-5-((5-(2-(((S)-1-((2S,4R)-4-hydroxy-2-(((S)-1-(4-(4-methylthiaozl-5-yl)phenyl)ethyl)carbam-oyl)pyrrolidin-1-yl)-3-methyl-1-oxobutan-2-yl)amino)-2-oxoethoxy)pentyl)amino) picolinamide]

DC50 (VCaP cells; Table 34; read-out: VCaP DC50): < 50 nM
Dmax (VCaP, VCaP cells; Table 34; read-out: VCaP Dmax (%)): 51 to 70%
SMILES: CC(C)(C)[C@H](NC(=O)COCCCCOc1ccc(C(=O)N[C@H]2C(C)(C)[C@H](Oc3ccc(C#N)c(Cl)c3)C2(C)C)cc1)C(=O)N1C[C@H](O)C[C@H]1C(=O)NCc1ccc(-c2ccccc2)cc1 [Example 407]

SMILES: CC(C)(C)[C@H](NC(=O)COCCCCOc1ccc(-c2ccc(N3C(=S)N(c4ccc(C#N)c(C(F)(F)F)c4)C(=O)C3(C)C)c(F)c2)cc1)C(=O)N1C[C@H](O)C[C@H]1C(=O)NCc1ccc(-c2cncs2)cc1 [Example 117, (2S,4R)-1-[(2S)-2-(2-{4-[4-(4-{3-[4-cyano-3-(trifluoromethyl)phenyl]-5,5-dimethyl-4-oxo-2-sulfanylideneimidazolidin-1-yl}-3-fluorophenyl)phen-oxy]butoxy}acetamido)-3,3-dimethylbutanoyl]-4-hydroxy-N-{[4-(1,3-thiazol-5-yl)phenyl]methyl}pyrrolidine-2-carboxamide]
Dmax (VCaP, read-out: VCaP Dmax (%)): > 71%
DC50 (read-out: VCaP DC50; concentration that caused 50% Androgen Receptor degradation, VCaP cells (Table 32)): < 50 nM

SMILES: Cc1ncoc1-c1ccc(CNC(=O)[C@@H]2C[C@@H](O)CN2C(=O)[C@@H](NC(=O)COCCCOCCCCOc2ccc(N3C(=S)N(c4ccc(C#N)c(Cl)c4)C(=O)C3(C)C)cc2)C(C)(C)C)cc1 [Example 38, (2S,4R)-1-[(2S)-2-{2-[3-(4-{4-[3-(3-chloro-4-cyanophenyl)-5,5-dimethyl-4-oxo-2-sulfanylideneimidazolidin-1-yl]phenoxy}butoxy)propoxy]acetamido}-3,3-dimethylbutanoyl]-4-hydroxy-N-{[4-(4-methyl-1,3-oxazol-5-yl)phenyl]methyl}pyrrolidine-2-carboxamide]
Dmax (VCaP, read-out: VCaP Dmax (%)): 51 to 70%
DC50 (read-out: VCaP DC50; concentration that caused 50% Androgen Receptor degradation, VCaP cells): < 50 nM

DC50 [1]: > 501 nM
Dmax (VCaP, read-out: VCaP Dmax (%), VCaP cells; Table 36): < 25%
SMILES: CC(C)C[C@H](OCCN1CCN(c2ccc(C(=O)N[C@H]3C(C)(C)[C@H](Oc4ccc(C#N)c(Cl)c4)C3(C)C)cn2)CC1)C(=O)N[C@@H](C)C(=O)N1C[C@H](O)C[C@H]1C(=O)NCc1ccc(Cl)cc1 [Example 722, N-((1r,3r)-3-(3-chloro-4-cyanophenoxy)-2,2,4,4-tetramethylcyclobutyl)-6-(4-(2-(((S)-1-(((S)-1-((2S,4R)-2-((4-chlorobenzyl)carbamoyl)-4-hydroxypyrrolidin-1-yl)-1-oxopropan-2-yl)amino)-4-methyl-1-oxopentan-2-yl)oxy)ethyl)piperazin-1-yl)nicotinamide]
